{"source": "patent US20230067402A1", "about": "“IS[…] T[…] ANALOGS THEREOF” (Biomind Labs Inc, priority 2021, published 2023)", "origin": "cited, not measured here", "conditions": "intramuscular administration"}
{"smiles": "CN(C)CCc1c[nH]c2ccccc12", "note": "[DMT, N,N-dimethyltryptamine]", "values": [{"measurement": "time to peak concentration in the blood", "result": "10 to 15", "unit": "min"}, {"measurement": "blood level after one hour", "setting": "after one hour", "result": "undetectable levels"}]}
